Measured values: patent US8871802B2, “Naphthoquinones for disease therapies” (Zhoushan HaiZhongZhou Xinsheng Pharmaceuticals Co., Ltd., priority 2010, dated 2014)

Legend:
Assay type in all cases: cell-based
A549 = experiment: MTT cell viability, A549 (lung cancer); conditions: Homo sapiens, 48 hour incubation, read-out: Drug concentrations for 50% cell viability (IC50)
Protocol: (§1) In vitro anticancer activity of the compound of Formula I was performed using popular MTT method (Archives of Biochemistry and Biophysics, 1993, 303, […]) against lung cancer, colorectal cancer, cervical cancer, osteosarcoma, leiomyosarcoma, malignant melanoma, pancreas cancer, prostate cancer, nasopharyngeal cancer, glioma, esophageal cancer, stomach cancer, and liver cancer.
(§2) Cell Culture: A549, DLD1, SW480, LOVO, HT-29, Hela, U-20S, MES-SA, SK-MEL-28, Panc-1, DU-145, CNE, U251, Eca-109, MGC80-3, QGY-7701, BEL-7404, PLC/PRF/5, Huh-7, and SGC-7901 cells were maintained in Dulbecco's Modified Eagle Medium (DMEM) (imported from Invitrogen, Carlsbad, Calif., USA) supplemented with 10% fetal bovine serum (FBS) (Si Ji Qing, Hangzhou, China) and 1% penicillin/streptomycin/amphotercin B (imported from Invitrogen, Carlsbad, Calif., USA). Cell Viability Determination: Popular MTT method (Archives of Biochemistry and Biophysics. 1993, 303, 474-482) was used to screen the in vitro effects of the invented drugs. Briefly, 5000 to 10000 cells were inoculated per well in a 96-well plate. After overnight incubation, drug was added to the wells at final concentration of 10 μM, 5 μM, 2.5 μM, 1.25 μM, or 1 μM, 0.75 μM, 0.5 μM and 0.25 μM in complete culture medium. Each dose level covered 4 equivalent wells. After 48 hour incubation, one tenth volume of 5 mg/mL MTT (thiazolyl blue tetrazolium bromide, Sigma-Aldrich) stock solution was added, and incubation continued for 2 hours. Then medium was removed and 100 μL of isopropanol solution comprising 86% isopropanol, 4% aqueous 1N HCl and 10% aqueous solution of 10% SDS was added. The absorbance of each well at 570 nm wavelength was measured by a micro-plate reader after gentle shaking for 20 minutes. Drug concentrations of 50% cell viability (IC50) were calculated by LOGIT method.

DLD1 = experiment: MTT cell viability, DLD1 (colorectal cancer); conditions: Homo sapiens, DLD-1, 48 hour incubation, read-out: Drug concentrations for 50% cell viability (IC50)
Protocol: as §1, §2

SW480 = experiment: MTT cell viability, SW480 (colorectal cancer); conditions: Homo sapiens, 48 hour incubation, read-out: Drug concentrations for 50% cell viability (IC50)
Protocol: as §1
as §2, with “Each dose level covered 4 equivalent wells. After 48 hour incubation, one tenth volume of 5 mg/mL MTT (thiazolyl blue tetrazolium bromide, Sigma-Aldrich) stock solution was added, and incubation continued for 2 hours. Then medium was removed and 100 μL of isopropanol solution comprising 86% isopropanol, 4% aqueous 1N HCl and 10% aqueous solution of 10% SDS was added.” left out, “Drug concentrations of 50% cell viability (IC50) were calculated by LOGIT method.” left out

LOVO = experiment: MTT cell viability, LOVO (colorectal cancer); conditions: Homo sapiens, 48 hour incubation, read-out: Drug concentrations for 50% cell viability (IC50)
Protocol: as §1
as §2, with “Each dose level covered 4 equivalent wells. After 48 hour incubation, one tenth volume of 5 mg/mL MTT (thiazolyl blue tetrazolium bromide, Sigma-Aldrich) stock solution was added, and incubation continued for 2 hours. Then medium was removed and 100 μL of isopropanol solution comprising 86% isopropanol, 4% aqueous 1N HCl and 10% aqueous solution of 10% SDS was added.” left out, “Drug concentrations of 50% cell viability (IC50) were calculated by LOGIT method.” left out

HT-29 = experiment: MTT cell viability, HT-29 (colorectal cancer); conditions: Homo sapiens, 48 hour incubation, read-out: Drug concentrations for 50% cell viability (IC50)
Protocol: as §1
as §2, with “Each dose level covered 4 equivalent wells. After 48 hour incubation, one tenth volume of 5 mg/mL MTT (thiazolyl blue tetrazolium bromide, Sigma-Aldrich) stock solution was added, and incubation continued for 2 hours. Then medium was removed and 100 μL of isopropanol solution comprising 86% isopropanol, 4% aqueous 1N HCl and 10% aqueous solution of 10% SDS was added.” left out, “Drug concentrations of 50% cell viability (IC50) were calculated by LOGIT method.” left out

Hela = experiment: MTT cell viability, Hela (cervical cancer); conditions: Homo sapiens, 48 hour incubation, read-out: Drug concentrations for 50% cell viability (IC50)
Protocol: as §1
as §2, with “Each dose level covered 4 equivalent wells. After 48 hour incubation, one tenth volume of 5 mg/mL MTT (thiazolyl blue tetrazolium bromide, Sigma-Aldrich) stock solution was added, and incubation continued for 2 hours. Then medium was removed and 100 μL of isopropanol solution comprising 86% isopropanol, 4% aqueous 1N HCl and 10% aqueous solution of 10% SDS was added.” left out, “Drug concentrations of 50% cell viability (IC50) were calculated by LOGIT method.” left out

U-20S = experiment: MTT cell viability, U-20S (osteosarcoma); conditions: 48 hour incubation, read-out: Drug concentrations for 50% cell viability (IC50)
Protocol: as §1, §2

MES-SA = experiment: MTT cell viability, MES-SA (leiomyosarcoma); conditions: Homo sapiens, 48 hour incubation, read-out: Drug concentrations for 50% cell viability (IC50)
Protocol: as §1
as §2, with “Each dose level covered 4 equivalent wells. After 48 hour incubation, one tenth volume of 5 mg/mL MTT (thiazolyl blue tetrazolium bromide, Sigma-Aldrich) stock solution was added, and incubation continued for 2 hours. Then medium was removed and 100 μL of isopropanol solution comprising 86% isopropanol, 4% aqueous 1N HCl and 10% aqueous solution of 10% SDS was added.” left out, “Drug concentrations of 50% cell viability (IC50) were calculated by LOGIT method.” left out

SK-MEL-28 = experiment: MTT cell viability, SK-MEL-28 (malignant melanoma); conditions: Homo sapiens, 48 hour incubation, read-out: Drug concentrations for 50% cell viability (IC50)
Protocol: as §1
as §2, with “Each dose level covered 4 equivalent wells. After 48 hour incubation, one tenth volume of 5 mg/mL MTT (thiazolyl blue tetrazolium bromide, Sigma-Aldrich) stock solution was added, and incubation continued for 2 hours. Then medium was removed and 100 μL of isopropanol solution comprising 86% isopropanol, 4% aqueous 1N HCl and 10% aqueous solution of 10% SDS was added.” left out, “Drug concentrations of 50% cell viability (IC50) were calculated by LOGIT method.” left out

Panc-1 = experiment: MTT cell viability, Panc-1 (pancreatic cancer); conditions: Homo sapiens, 48 hour incubation, read-out: Drug concentrations for 50% cell viability (IC50)
Protocol: as §1
as §2, with “Each dose level covered 4 equivalent wells. After 48 hour incubation, one tenth volume of 5 mg/mL MTT (thiazolyl blue tetrazolium bromide, Sigma-Aldrich) stock solution was added, and incubation continued for 2 hours. Then medium was removed and 100 μL of isopropanol solution comprising 86% isopropanol, 4% aqueous 1N HCl and 10% aqueous solution of 10% SDS was added.” left out, “Drug concentrations of 50% cell viability (IC50) were calculated by LOGIT method.” left out

DU-145 = experiment: MTT cell viability, DU-145 (prostate cancer); conditions: Homo sapiens, 48 hour incubation, read-out: Drug concentrations for 50% cell viability (IC50)
Protocol: as §1, §2

CNE = experiment: MTT cell viability, CNE (nasopharyngeal cancer); conditions: Homo sapiens, 48 hour incubation, read-out: Drug concentrations for 50% cell viability (IC50)
Protocol: as §1
as §2, with “Each dose level covered 4 equivalent wells. After 48 hour incubation, one tenth volume of 5 mg/mL MTT (thiazolyl blue tetrazolium bromide, Sigma-Aldrich) stock solution was added, and incubation continued for 2 hours. Then medium was removed and 100 μL of isopropanol solution comprising 86% isopropanol, 4% aqueous 1N HCl and 10% aqueous solution of 10% SDS was added.” left out, “Drug concentrations of 50% cell viability (IC50) were calculated by LOGIT method.” left out

U251 = experiment: MTT cell viability, U251 (glioma); conditions: Homo sapiens, U-251, 48 hour incubation, read-out: Drug concentrations for 50% cell viability (IC50)
Protocol: as §1
as §2, with “Each dose level covered 4 equivalent wells. After 48 hour incubation, one tenth volume of 5 mg/mL MTT (thiazolyl blue tetrazolium bromide, Sigma-Aldrich) stock solution was added, and incubation continued for 2 hours. Then medium was removed and 100 μL of isopropanol solution comprising 86% isopropanol, 4% aqueous 1N HCl and 10% aqueous solution of 10% SDS was added.” left out, “Drug concentrations of 50% cell viability (IC50) were calculated by LOGIT method.” left out

Eca-109 = experiment: MTT cell viability, Eca-109 (esophageal cancer); conditions: Homo sapiens, 48 hour incubation, read-out: Drug concentrations for 50% cell viability (IC50)
Protocol: as §1
as §2, with “Each dose level covered 4 equivalent wells. After 48 hour incubation, one tenth volume of 5 mg/mL MTT (thiazolyl blue tetrazolium bromide, Sigma-Aldrich) stock solution was added, and incubation continued for 2 hours. Then medium was removed and 100 μL of isopropanol solution comprising 86% isopropanol, 4% aqueous 1N HCl and 10% aqueous solution of 10% SDS was added.” left out, “Drug concentrations of 50% cell viability (IC50) were calculated by LOGIT method.” left out

MGC80-3 = experiment: MTT cell viability, MGC80-3 (stomach cancer); conditions: Homo sapiens, MGC-803, 48 hour incubation, read-out: Drug concentrations for 50% cell viability (IC50)
Protocol: as §1
as §2, with “Each dose level covered 4 equivalent wells. After 48 hour incubation, one tenth volume of 5 mg/mL MTT (thiazolyl blue tetrazolium bromide, Sigma-Aldrich) stock solution was added, and incubation continued for 2 hours. Then medium was removed and 100 μL of isopropanol solution comprising 86% isopropanol, 4% aqueous 1N HCl and 10% aqueous solution of 10% SDS was added.” left out, “Drug concentrations of 50% cell viability (IC50) were calculated by LOGIT method.” left out

SGC-7901 = experiment: MTT cell viability, SGC-7901 (stomach cancer); conditions: Homo sapiens, 48 hour incubation, read-out: Drug concentrations for 50% cell viability (IC50)
Protocol: as §1
as §2, with “Each dose level covered 4 equivalent wells. After 48 hour incubation, one tenth volume of 5 mg/mL MTT (thiazolyl blue tetrazolium bromide, Sigma-Aldrich) stock solution was added, and incubation continued for 2 hours. Then medium was removed and 100 μL of isopropanol solution comprising 86% isopropanol, 4% aqueous 1N HCl and 10% aqueous solution of 10% SDS was added.” left out, “Drug concentrations of 50% cell viability (IC50) were calculated by LOGIT method.” left out

QGY-7701 = experiment: MTT cell viability, QGY-7701 (liver cancer); conditions: QGY7701, 48 hour incubation, read-out: Drug concentrations for 50% cell viability (IC50)
Protocol: as §1
as §2, with “Each dose level covered 4 equivalent wells. After 48 hour incubation, one tenth volume of 5 mg/mL MTT (thiazolyl blue tetrazolium bromide, Sigma-Aldrich) stock solution was added, and incubation continued for 2 hours. Then medium was removed and 100 μL of isopropanol solution comprising 86% isopropanol, 4% aqueous 1N HCl and 10% aqueous solution of 10% SDS was added.” left out, “Drug concentrations of 50% cell viability (IC50) were calculated by LOGIT method.” left out

BEL-7404 = experiment: MTT cell viability, BEL-7404 (liver cancer); conditions: Homo sapiens, 48 hour incubation, read-out: Drug concentrations for 50% cell viability (IC50)
Protocol: as §1
as §2, with “Each dose level covered 4 equivalent wells. After 48 hour incubation, one tenth volume of 5 mg/mL MTT (thiazolyl blue tetrazolium bromide, Sigma-Aldrich) stock solution was added, and incubation continued for 2 hours. Then medium was removed and 100 μL of isopropanol solution comprising 86% isopropanol, 4% aqueous 1N HCl and 10% aqueous solution of 10% SDS was added.” left out, “Drug concentrations of 50% cell viability (IC50) were calculated by LOGIT method.” left out

PLC/PRF/5 = experiment: MTT cell viability, PLC/PRF/5 (liver cancer); conditions: Homo sapiens, 48 hour incubation, read-out: Drug concentrations for 50% cell viability (IC50)
Protocol: as §1
as §2, with “Each dose level covered 4 equivalent wells. After 48 hour incubation, one tenth volume of 5 mg/mL MTT (thiazolyl blue tetrazolium bromide, Sigma-Aldrich) stock solution was added, and incubation continued for 2 hours. Then medium was removed and 100 μL of isopropanol solution comprising 86% isopropanol, 4% aqueous 1N HCl and 10% aqueous solution of 10% SDS was added.” left out, “Drug concentrations of 50% cell viability (IC50) were calculated by LOGIT method.” left out

Huh-7 = experiment: MTT cell viability, Huh-7 (liver cancer); conditions: Homo sapiens, 48 hour incubation, read-out: Drug concentrations for 50% cell viability (IC50)
Protocol: as §1
as §2, with “Each dose level covered 4 equivalent wells. After 48 hour incubation, one tenth volume of 5 mg/mL MTT (thiazolyl blue tetrazolium bromide, Sigma-Aldrich) stock solution was added, and incubation continued for 2 hours. Then medium was removed and 100 μL of isopropanol solution comprising 86% isopropanol, 4% aqueous 1N HCl and 10% aqueous solution of 10% SDS was added.” left out, “Drug concentrations of 50% cell viability (IC50) were calculated by LOGIT method.” left out

Row | SMILES | IC50 (A549) | IC50 (DLD1) | IC50 (SW480) | IC50 (LOVO) | IC50 (HT-29) | IC50 (Hela) | IC50 (U-20S) | IC50 (MES-SA) | IC50 (SK-MEL-28) | IC50 (Panc-1) | IC50 (DU-145) | IC50 (CNE) | IC50 (U251) | IC50 (Eca-109) | IC50 (MGC80-3) | IC50 (SGC-7901) | IC50 (QGY-7701) | IC50 (BEL-7404) | IC50 (PLC/PRF/5) | IC50 (Huh-7)
1 | CS(=O)(=O)c1cc2c(o1)C(=O)c1ccccc1C2=O [Compound I, 2-methylsulfonyl-naphtho[2,3-b]furan-4,9-dione] | 2500 nM | 290 nM | 1170 nM | 2150 nM | 720 nM | 1200 nM | 430 nM | 1200 nM | 220 nM | 1600 nM | 430 nM | 1360 nM | 1000 nM | 3450 nM | 1200 nM | 2500 nM | 3500 nM | 1110 nM | 2500 nM | 2500 nM
2 | C[S+]([O-])c1cc2c(o1)C(=O)c1ccccc1C2=O (stereo not drawn) [Compound II, 2-methylsulfinyl-naphtho[2,3-b]furan-4,9-dione] | 2500 nM | 280 nM | 1250 nM | 4570 nM | 780 nM | 1490 nM | 390 nM | 1000 nM | 240 nM | 1250 nM | 500 nM | 1250 nM | 1000 nM | 3800 nM | 1200 nM | 2500 nM | 2500 nM | 1100 nM | 2000 nM | 2500 nM
3 | CS(=O)(=O)c1oc2c(c1-c1ccccc1)C(=O)c1ccccc1C2=O [Compound XV, 2-methylsulfonyl-3-phenyl-naphtho[2,3-b]furan-4,9-dione] | > 10000 nM | 2510 nM | – | – | – | – | 3610 nM | – | – | – | 5000 nM | – | – | – | – | – | – | – | – | –
4 | C[S+]([O-])c1oc2c(c1-c1ccccc1)C(=O)c1ccccc1C2=O (stereo not drawn) [Compound XVI, 2-methylsulfinyl-3-phenyl-naphtho[2,3-b]furan-4,9-dione] | 6890 nM | 1000 nM | – | – | – | – | 1250 nM | – | – | – | 3200 nM | – | – | – | – | – | – | – | – | –
